Data: US7173019B2, “Linked cyclitols and their polysulfated derivatives” (The Australian National University, priority 2001, dated 2007)
Read-outs that look alike come from different tables or passages of the source.

Assays:
bFGF = bFGF (Homo sapiens, UniProt P09038); assay: Biacore biosensor: inhibition of bFGF binding to immobilised heparin and heparan sulfate
Protocol: (§1) Assays were performed using a Biacore™ 2000 optical biosensor obtained from Biacore AB, Uppsala, Sweden. The biosensor was operated in accordance with the manufacturer's instructions. Briefly, neutravidin was covalently coupled to the surface of CM5 chips of the biosensor and then either biotinylated heparin (1 μg/ml) or biotinylated heparan sulfate ([…]) bound to the immobilised neutravidin. Mixtures of a test compound and a growth factor or other effector compound were preincubated for 2 to 5 minutes and the mixtures then added to individual biosensor cuvettes. Binding of growth factor or effector compound to the heparin or heparan sulfate was then monitored for approximately 5 minutes with the biosensor.
(§2) The tabulated values are the IC50 in μM or % inhibition of binding of the growth factor to the immobilised heparan sulfate (HS) or heparin.

VEGF = target: T1, VEGF (Homo sapiens, UniProt P15692); assay: Biacore biosensor: inhibition of VEGF binding to immobilised heparin and heparan sulfate; conditions: inhibitor 0.034 μM, VEGF 0.025 μM
T1 sequence (P15692 27-191 isoform P15692-4): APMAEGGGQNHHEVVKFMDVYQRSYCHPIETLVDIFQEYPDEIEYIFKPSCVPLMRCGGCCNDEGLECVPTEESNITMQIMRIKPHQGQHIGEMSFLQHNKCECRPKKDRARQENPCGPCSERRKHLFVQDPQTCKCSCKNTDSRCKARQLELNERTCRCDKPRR
Protocol: as §1, §2

IL-8 = target: T2, IL-8 (Homo sapiens, UniProt P10145); assay: Biacore biosensor: inhibition of IL-8 binding to immobilised heparin and heparan sulfate; conditions: inhibitor 1.0 μM, IL-8 0.068 μM
T2 sequence (P10145 21-99): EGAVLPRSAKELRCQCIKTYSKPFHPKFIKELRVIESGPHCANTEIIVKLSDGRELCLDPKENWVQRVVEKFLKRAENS
Protocol: as §1

[1] = target: T3, human leukocyte Cathepsin G (Homo sapiens, UniProt P08311); assay: Cathepsin G inhibition, fluorogenic substrate, 96 well assay; format: biochemical; conditions: human leukocyte cathepsin G 100 ng, 37° C., 60 min, pH 6.6; for IC50: read-out: Amount for 50% inhibition (converted)
T3 construct: human leukocyte Cathepsin G (100 ng protein); from tissue; host or cells: human leukocytes
T3 sequence (P08311 21-244): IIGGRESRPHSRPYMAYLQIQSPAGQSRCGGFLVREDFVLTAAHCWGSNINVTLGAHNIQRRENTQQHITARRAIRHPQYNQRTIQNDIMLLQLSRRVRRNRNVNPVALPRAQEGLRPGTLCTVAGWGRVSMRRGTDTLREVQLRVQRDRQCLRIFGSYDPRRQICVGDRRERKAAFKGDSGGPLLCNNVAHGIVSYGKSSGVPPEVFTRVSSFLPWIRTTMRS
Protocol: Cathepsin G activity was determined using a 96 well assay format in PVC microtitre U-bottom plates with activity determination by a fluorescence plate reader. Briefly, within a total incubation volume of 40 μl, human leukocyte Cathepsin G (100 ng protein) was added to a mixture of inhibitor and the fluorogenic substrate MeOSuc-ala-ala-pro-phe-AMAC in 50 mM-NaOAc buffer, pH 6.6 containing 50 mM NaCl and 0.1% (v/v) Brij 35. The mixture was incubated at 37° C. for 60 min, the reaction stopped by the addition of 40 μl of 250 mM acetic acid and the fluorescence determined with excitation at 360 nm and emitted light measured at 460 nm.
In this table, the linked cyclitol compound identifications are the same as those given in Section A above where the structures of the compounds are also given. With regard to the purity rating, a greater number of asterisks signifies a greater degree of purity with five asterisks signifying an essentially pure compound. The cathepsin G inhibition data are the concentrations of compounds required to inhibit the enzyme by 50%.

aFGF = aFGF (Homo sapiens, UniProt P05230); assay: Biacore biosensor: inhibition of aFGF binding to immobilised heparin and heparan sulfate; conditions: inhibitor 0.034 μM, aFGF 0.025 μM
aFGF, sequence (P05230 whole entry, species assumed): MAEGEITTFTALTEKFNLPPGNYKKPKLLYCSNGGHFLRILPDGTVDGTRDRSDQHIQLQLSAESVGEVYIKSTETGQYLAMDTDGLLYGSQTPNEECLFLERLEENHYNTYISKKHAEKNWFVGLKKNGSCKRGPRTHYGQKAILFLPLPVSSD
Protocol: as §1, §2

[2] = target: T4, human platelet heparanase (Homo sapiens, UniProt Q9Y251); assay: Heparanase inhibition, 3H-radiolabelled HS cleavage assay; format: biochemical; conditions: for inhibition: read-out: Relative inhibition (%); for EC50: heparanase inhibition; for inhibition at 10 µg/mL: read-out: Inhibition (%) at 10 μg/ml
T4 construct: 10 ng of purified human platelet heparanase; from tissue; host or cells: human platelets
T4 sequence (Q9Y251 158-543 limits assumed): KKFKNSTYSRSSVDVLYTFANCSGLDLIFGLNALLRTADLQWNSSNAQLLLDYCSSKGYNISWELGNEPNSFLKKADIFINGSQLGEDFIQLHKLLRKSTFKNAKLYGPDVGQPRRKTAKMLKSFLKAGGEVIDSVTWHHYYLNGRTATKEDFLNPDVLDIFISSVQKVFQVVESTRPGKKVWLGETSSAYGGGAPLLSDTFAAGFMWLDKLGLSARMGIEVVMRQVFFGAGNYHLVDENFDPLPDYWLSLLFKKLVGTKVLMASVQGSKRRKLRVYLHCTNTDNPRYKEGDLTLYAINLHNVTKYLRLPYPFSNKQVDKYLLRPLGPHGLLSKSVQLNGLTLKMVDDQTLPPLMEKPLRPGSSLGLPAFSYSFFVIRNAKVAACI
T4 sequence (Q9Y251 36-109 limits assumed): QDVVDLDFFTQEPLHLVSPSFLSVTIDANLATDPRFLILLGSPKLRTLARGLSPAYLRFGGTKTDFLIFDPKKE
Protocol: Briefly, to an incubation mixture of […] containing ^3H-radiolabelled porcine mucosal HS […], 50 mM-sodium acetate buffer, pH 5.0, […] bovine serum albumin and the inhibitor to be tested, was added 10 ng of purified human platelet heparanase and the mixture incubated for 30 min. The reaction was terminated by freezing the assay tubes. The substrate was separated from the cleavage products on minicolumns of sepharose-bound histidine-rich glycoprotein (Freeman, C., and Parish, C. R. [1997], supra).
Inhibitory activity is based on a comparison with heparin with 100% inhibition at 30 μg/ml. The compounds were also tested at the same purity as in Example 15.

[3] = immobilised heparan sulfate, inhibitor 0.034 μM, bFGF 0.034 μM, read-out: Inhibition of binding of bFGF (HS)
[4] = immobilised heparan sulfate, read-out: IC50, inhibition of bFGF binding (HS)
[5] = immobilised heparin, inhibitor 0.034 μM, bFGF 0.034 μM, read-out: Inhibition of binding of bFGF (Hep)
[6] = immobilised heparin, read-out: IC50, inhibition of bFGF binding (Hep)
[7] = immobilised heparan sulfate, read-out: Inhibition of binding of VEGF (HS)
[8] = immobilised heparin, read-out: Inhibition of binding of VEGF (Hep)
[9] = immobilised heparan sulfate, read-out: Inhibition of binding of IL-8 (HS)
[10] = immobilised heparin, read-out: Inhibition of binding of IL-8 (Hep)
[11] = immobilised heparan sulfate, read-out: Inhibition of binding of aFGF (HS)
[12] = immobilised heparin, read-out: Inhibition of binding of aFGF (Hep)
[13] = based on a comparison with heparin with 100% inhibition at 30 μg/ml

bFGF, sequence (P09038 134-288 limits assumed, species assumed): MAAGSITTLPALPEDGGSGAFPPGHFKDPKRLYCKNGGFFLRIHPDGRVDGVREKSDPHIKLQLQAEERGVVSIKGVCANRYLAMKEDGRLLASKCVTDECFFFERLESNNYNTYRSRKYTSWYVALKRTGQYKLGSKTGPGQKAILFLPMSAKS

Structure (SMILES)	inhibition at 0.034 µM (bFGF; [3]) [%]	IC50 (bFGF; [4]) [nM]	inhibition at 0.034 µM (bFGF; [5]) [%]	IC50 (bFGF; [6]) [nM]	inhibition at 0.034 µM (VEGF; [7]) [%]	inhibition at 0.034 µM (VEGF; [8]) [%]	inhibition at 1 µM (IL-8; [9]) [%]	inhibition at 1 µM (IL-8; [10]) [%]	IC50 [1] [nM]	inhibition at 0.034 µM (aFGF; [11]) [%]	inhibition at 0.034 µM (aFGF; [12]) [%]	inhibition [2, 13] [%]	EC50 ([2]; read-out: EC50 (converted)) [nM]	inhibition at 10 µg/mL [2] [%]	also measured
O=S(=O)(O)O[C@H]1[C@H](OS(=O)(=O)O)[C@@H](N(CCN([C@H]2C=C[C@@H](OS(=O)(=O)O)[C@@H](OS(=O)(=O)O)[C@@H]2OS(=O)(=O)O)[C@H]2C=C[C@@H](OS(=O)(=O)O)[C@@H](OS(=O)(=O)O)[C@@H]2OS(=O)(=O)O)[C@H]2C=C[C@@H](OS(=O)(=O)O)[C@@H](OS(=O)(=O)O)[C@@H]2OS(=O)(=O)O)C=C[C@H]1OS(=O)(=O)O [Compound 4f]	19	240	15	> 250	0	0	38	48	189	68	65	60	11100	44	–
O=S(=O)(O)O[C@H]1[C@H](OS(=O)(=O)O)[C@@H](N(CCCCN([C@H]2C=C[C@@H](OS(=O)(=O)O)[C@@H](OS(=O)(=O)O)[C@@H]2OS(=O)(=O)O)[C@H]2C=C[C@@H](OS(=O)(=O)O)[C@@H](OS(=O)(=O)O)[C@@H]2OS(=O)(=O)O)[C@H]2C=C[C@@H](OS(=O)(=O)O)[C@@H](OS(=O)(=O)O)[C@@H]2OS(=O)(=O)O)C=C[C@H]1OS(=O)(=O)O [Compound 4g]	44	–	31	> 250	10	21	42	67	128	43	44	57	14100	42	–
O=S(=O)(O)OC(CN([C@H]1C=C[C@@H](OS(=O)(=O)O)[C@@H](OS(=O)(=O)O)[C@@H]1OS(=O)(=O)O)[C@H]1C=C[C@@H](OS(=O)(=O)O)[C@@H](OS(=O)(=O)O)[C@@H]1OS(=O)(=O)O)CN([C@H]1C=C[C@@H](OS(=O)(=O)O)[C@@H](OS(=O)(=O)O)[C@@H]1OS(=O)(=O)O)[C@H]1C=C[C@@H](OS(=O)(=O)O)[C@@H](OS(=O)(=O)O)[C@@H]1OS(=O)(=O)O [Compound 4l]	43	–	34	–	0	0	46	52	292	47	54	48	17000	–	–
O=S(=O)(O)OC[C@H]1O[C@@](COS(=O)(=O)O)(O[C@H]2O[C@H](COS(=O)(=O)O)[C@@H](OS(=O)(=O)O)[C@H](OS(=O)(=O)O)[C@H]2OS(=O)(=O)O)[C@@H](OS(=O)(=O)O)[C@@H]1OS(=O)(=O)O [Sucrose octasulfate, reference compound]	–	925	–	> 1000	–	–	–	–	–	–	–	–	–	–	Inhibition of binding of bFGF (HS) (bFGF; immobilised heparan sulfate, inhibitor 0.034 μM, bFGF 0.034 μM): 2.5% (HS); Inhibition of binding of bFGF (Hep) (bFGF; immobilised heparin, inhibitor 0.034 μM, bFGF 0.034 μM): 0% (Hep); Inhibition of binding of VEGF (HS) (VEGF; immobilised heparan sulfate): 0% (HS); Inhibition of binding of VEGF (Hep) (VEGF; immobilised heparin): 0% (Hep); Amount for 50% inhibition [1]: 4.30 µg/mL; Inhibition of binding of aFGF (HS) (aFGF; immobilised heparan sulfate): 0% (HS); Inhibition of binding of aFGF (Hep) (aFGF; immobilised heparin): 0% (Hep); Relative inhibition (%) [2, 13]: 0%; EC50 [2]: >30 µg/mL
O=S(=O)(O)OC1C(OS(=O)(=O)O)C(OS(=O)(=O)O)C(N(CCCCCCCCCCN(C2C(OS(=O)(=O)O)C(OS(=O)(=O)O)C(OS(=O)(=O)O)C(OS(=O)(=O)O)C2OS(=O)(=O)O)C2C(OS(=O)(=O)O)C(OS(=O)(=O)O)C(OS(=O)(=O)O)C(OS(=O)(=O)O)C2OS(=O)(=O)O)C2C(OS(=O)(=O)O)C(OS(=O)(=O)O)C(OS(=O)(=O)O)C(OS(=O)(=O)O)C2OS(=O)(=O)O)C(OS(=O)(=O)O)C1OS(=O)(=O)O (stereo not shown) [Compound 5c]	–	> 250	–	> 250	–	–	–	–	198	–	–	–	20600	–	heparanase inhibition, in words [2]: poor heparanase inhibitor
O=S(=O)(O)OC1C(OS(=O)(=O)O)C(OS(=O)(=O)O)C(N(CCCCCCN(C2C(OS(=O)(=O)O)C(OS(=O)(=O)O)C(OS(=O)(=O)O)C(OS(=O)(=O)O)C2OS(=O)(=O)O)C2C(OS(=O)(=O)O)C(OS(=O)(=O)O)C(OS(=O)(=O)O)C(OS(=O)(=O)O)C2OS(=O)(=O)O)C2C(OS(=O)(=O)O)C(OS(=O)(=O)O)C(OS(=O)(=O)O)C(OS(=O)(=O)O)C2OS(=O)(=O)O)C(OS(=O)(=O)O)C1OS(=O)(=O)O (stereo not shown) [Compound 5b]	–	96	–	> 250	–	–	–	–	304	–	–	–	5920	–	–
